Measurements as given in patent publication US20160296658A1, “NOVEL ACTIVE INGREDIENT IN CICATRIZATION AND USE THEREOF” (LABORATOIRES URGO, priority 2007, published 2016).

System: normal human dermal fibroblasts (NHDF) R9PF2
Assay: NHDF proliferation by incorporation of tritiated thymidine
Assay type: cell-based
Conditions: dilution in culture medium at 0.011 mg/mL; 48 hours
Protocol: Type: pool of normal human dermal fibroblasts (NHDF) R9PF2
DMEM (Dulbecco's Modified Eagle Medium, Invitrogen 21969035)
Dressings having the size of the wells, prepared as described previously using the elastomeric masses of examples 1 to 5, and also dilutions of the Sepinov EMT 10 copolymer to 0.011 mg/mL and of potassium sucrose octasulfate to 0.00064 mg/mL, were tested.
Effects on Proliferation:
The fibroblasts were seeded into 12-well plates at low density (60% confluence), and then the cells were treated with the dilutions or pieces of dressings were applied to these plates and kept in place by means of a plug (called “test”). A control without dressing, without dilution but with plug was carried out (called “control”).
The cells were then incubated for 24 hours, 48 hours and 72 hours. For each incubation time, tritiated thymidine ([methyl-3H]-thymidine, Amersham TRK 686 2.5 μCi/mL final concentration) was added for the final 24 hours of incubation and then the DNA of the cells of the cell layers was extracted and purified and the radioactivity incorporated into the DNA was counted using a scintillation counter.
The results obtained are expressed as counts per minute (cpm), then as percentage relative to the control according to the following formula:
%control=(Cpmtest/cmpcontrol)×100 […]

## O=S(=O)([O-])OC[C@H]1O[C@@](COS(=O)(=O)[O-])(O[C@H]2O[C@H](COS(=O)(=O)[O-])[C@@H](OS(=O)(=O)[O-])[C@H](OS(=O)(=O)[O-])[C@H]2OS(=O)(=O)[O-])[C@@H](OS(=O)(=O)[O-])[C@@H]1OS(=O)(=O)[O-].[K+].[K+].[K+].[K+].[K+].[K+].[K+].[K+] [Potassium sucrose octasulfate, potassium sucrose octasulfate]
  NHDF proliferation, % control: 106 % control
